Columns and labels:
Thromboxane A2 receptor = molecular target: T1, Thromboxane A2 receptor (Homo sapiens, UniProt P21731); assay: Binding affinity was determined for Thromboxane A2 receptor in human platelet membrane using [3H]SQ-29,548 radioligand; assay type: cell membranes
T1 sequence (P21731 whole entry): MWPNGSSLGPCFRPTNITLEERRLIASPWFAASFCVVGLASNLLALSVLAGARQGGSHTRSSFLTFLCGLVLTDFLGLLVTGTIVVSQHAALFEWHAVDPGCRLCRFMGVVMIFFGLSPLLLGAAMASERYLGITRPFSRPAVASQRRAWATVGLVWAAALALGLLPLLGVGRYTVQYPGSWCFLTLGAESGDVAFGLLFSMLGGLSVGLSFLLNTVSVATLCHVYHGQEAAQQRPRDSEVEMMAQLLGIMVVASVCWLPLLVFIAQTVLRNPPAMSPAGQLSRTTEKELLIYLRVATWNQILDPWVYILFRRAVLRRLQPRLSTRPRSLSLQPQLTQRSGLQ

Homo sapiens = organism: Homo sapiens; assay: Tested for the ability to inhibit arachidonic acid induced platelet aggregation in human platelet rich plasma; assay type: functional; settings: read-out: I50

Row | Kd (Thromboxane A2 receptor) [nM] | IC50 (Homo sapiens) [nM] | Compound
1 | 4.3 | 15 | O=C(O)CCc1ccccc1CC1CCC[C@H]1c1nc(C(=O)NCCCCC2CCCCC2)co1 (single isomer, unassigned; (-))
2 | 0.5 | 338 | O=C(O)CCc1ccccc1C[C@@H]1CCC[C@H]1c1nc(C(=O)NCc2ccc(Cl)cc2)co1
3 | 3.3 | 5160 | O=C(O)CCc1ccccc1C[C@H]1CCC[C@@H]1c1nc(C(=O)NCc2ccc(Cl)cc2)co1
4 | 23.8 | 107 | O=C(O)CCc1ccccc1C[C@@H]1CCC[C@@H]1c1nc(C(=O)NCCCCC2CCCCC2)co1
5 | 37.3 | 235 | C/C(Cc1ccccc1CCC(=O)O)=C(\C)c1nc(C(=O)NCCc2ccc(Cl)cc2)co1
6 | 63.5 | 194 | O=C(O)CCc1ccccc1CC1=C(c2nc(C(=O)NCCc3ccc(Cl)cc3)co2)CCCC1

From ChEMBL document CHEMBL1126505, “Syntheses of Cyclopentane, Cyclohexene and Olefin Oxazoles as Thromboxane A2/Endoperoxide Receptor Antagonists” (Bioorg Med Chem Lett, 1993)
